From patent publication US10538442B2, “Water treatment” (priority 2015, dated 2020)

How the values were obtained:
Enterobacter aerogenes = assay: Log 10 reduction of viable count of facultative anaerobic bacterium in dosed suspension (serial dilution into anaerobic acid producing media vials); format: cell-based; conditions: for Log 10 Reduction Facultative Anaerobes: TDS 30,000 mg l^-1, 6 = complete kill; for effectiveness against aerobes (in words): short contact times, summary of Table 1, combination compared with chlorine dioxide alone
Method: (§1) A suspension of Desulfovibrio vulgaris plus Enterobacter aerogenes bacteria containing from 1×10^5 to 1×10^6 cells/mL was prepared in sterile pH 8 phosphate buffer containing sodium chloride to give the desired total dissolved solids (TDS) concentration. Aliquots of this suspension were dosed with the indicated concentrations of the compounds (a) and (b) with the concentrations being measured as ppm by weight of the stated composition in the dosed suspension. The mixtures were allowed to stand at room temperature. At the designated contact times, each mixture was sampled to determine the total number of viable cells of both Desulfovibrio vulgaris and Enterobacter aerogenes by serial 10-fold dilution into API RP 38 media vials and anaerobic acid producing media vials, respectively. The vials were incubated at 37° C. for 72 hours. Results were recorded as log10 reduction in the viable count versus the control.
(§2) Aqueous media inoculated with anaerobe and aerobe culture and having a TDS of 30,000 mg l^−1 was treated with treatment agents comprising: (i) tri n-butyl n-tetradecyl phosphonium chloride (TTPC); (ii) chlorine dioxide; or (ill) a combination of TTPC and chlorine dioxide.
(§3) TTPC was used in the form of Bellacide 350, an aqueous composition of TTPC and water consisting of water and 50% by weight of TTPC available from BWA Water Additives.
(§4) Chlorine dioxide was used in the form of CDG Solution 3000 a 0.3% aqueous solution of chlorine dioxide available from CDG Environmental, LLC.
(§5) The efficacy of the treatment agents was evaluated by measuring the Log 10 Reduction of the anaerobic bacterium Desulfovibrio vulgaris and the facultative anaerobic bacterium Enterobacter aerogenes after contact times of 10 minutes, 30 minutes and 60 minutes as detailed in Table 1. For TTPC the stated ppm value relates to the amount of TTPC added (active). For the chlorine dioxide the stated ppm relates to the amount of free residual of chlorine dioxide.

Desulfovibrio vulgaris = assay: Log 10 reduction of viable count of anaerobic bacterium in dosed suspension (serial dilution into API RP 38 media vials); format: cell-based; conditions: for Log 10 Reduction Anaerobes: TDS 30,000 mg l^-1, 5 = complete kill; for effectiveness against anaerobes (in words): short contact times, summary of Table 1, combination compared with chlorine dioxide alone
Method: as §1, §2, §3, §4, §5

[1] = contact time 10 minutes, TTPC 3.125 ppm active
[2] = contact time 10 minutes, TTPC 6.25 ppm active
[3] = contact time 30 minutes, TTPC 3.125 ppm active
[4] = contact time 30 minutes, TTPC 6.25 ppm active
[5] = contact time 60 minutes, TTPC 3.125 ppm active
[6] = contact time 60 minutes, TTPC 6.25 ppm active
[7] = contact time 10 minutes, chlorine dioxide 0.25 ppm free residual
[8] = contact time 10 minutes, chlorine dioxide 0.5 ppm free residual
[9] = contact time 30 minutes, chlorine dioxide 0.25 ppm free residual
[10] = contact time 30 minutes, chlorine dioxide 0.5 ppm free residual
[11] = contact time 60 minutes, chlorine dioxide 0.25 ppm free residual
[12] = contact time 60 minutes, chlorine dioxide 0.5 ppm free residual

CCCCCCCCCCCCCC[P+](CCCC)(CCCC)CCCC.[Cl-] [TTPC, tri n-butyl n-tetradecyl phosphonium chloride]
Log 10 Reduction Facultative Anaerobes (Enterobacter aerogenes; [1]): 0
Log 10 Reduction Facultative Anaerobes (Enterobacter aerogenes; [2]): 0
Log 10 Reduction Facultative Anaerobes (Enterobacter aerogenes; [3]): 0
Log 10 Reduction Facultative Anaerobes (Enterobacter aerogenes; [4]): 1
Log 10 Reduction Facultative Anaerobes (Enterobacter aerogenes; [5]): 0
Log 10 Reduction Facultative Anaerobes (Enterobacter aerogenes; [6]): 1
effectiveness against aerobes (in words) (Enterobacter aerogenes): ineffective
Log 10 Reduction Anaerobes (Desulfovibrio vulgaris; [1]): 0
Log 10 Reduction Anaerobes (Desulfovibrio vulgaris; [2]): 0
Log 10 Reduction Anaerobes (Desulfovibrio vulgaris; [3]): 0
Log 10 Reduction Anaerobes (Desulfovibrio vulgaris; [4]): 2
Log 10 Reduction Anaerobes (Desulfovibrio vulgaris; [5]): 0
Log 10 Reduction Anaerobes (Desulfovibrio vulgaris; [6]): 5
effectiveness against anaerobes (in words) (Desulfovibrio vulgaris): ineffective

[O][Cl+][O-] [chlorine dioxide]
Log 10 Reduction Facultative Anaerobes (Enterobacter aerogenes; [7]): 3
Log 10 Reduction Facultative Anaerobes (Enterobacter aerogenes; [8]): 6
Log 10 Reduction Facultative Anaerobes (Enterobacter aerogenes; [9]): 3
Log 10 Reduction Facultative Anaerobes (Enterobacter aerogenes; [10]): 6
Log 10 Reduction Facultative Anaerobes (Enterobacter aerogenes; [11]): 3
Log 10 Reduction Facultative Anaerobes (Enterobacter aerogenes; [12]): 6
effectiveness against aerobes (in words) (Enterobacter aerogenes): effective
Log 10 Reduction Anaerobes (Desulfovibrio vulgaris; [7]): 3
Log 10 Reduction Anaerobes (Desulfovibrio vulgaris; [8]): 4
Log 10 Reduction Anaerobes (Desulfovibrio vulgaris; [9]): 3
Log 10 Reduction Anaerobes (Desulfovibrio vulgaris; [10]): 5
Log 10 Reduction Anaerobes (Desulfovibrio vulgaris; [11]): 3
Log 10 Reduction Anaerobes (Desulfovibrio vulgaris; [12]): 5
effectiveness against anaerobes (in words) (Desulfovibrio vulgaris): effective
